Assay results as given in article PMC9317966, “Structure-function analysis of the AMPK activator SC4 and identification of a potent pan AMPK activator” (Biochemical Journal, 2022).

Columns and labels:
γ1AMPK complexes = experiment: Radiolabel kinase assay, immobilised GST-tagged γ1AMPK (stated across γ1 complexes); assay type: biochemical, human
Excerpt: We directly compared in vitro potencies of pan activators by performing radiolabel kinase assays with γ1AMPK complexes. Initially, we used GST-tagged γ1AMPK expressed in HEK293T/17 cells and immobilised on glutathione-Sepharose (Figure 2 and Table 2). […] These assays used AMPK purified from Sf9 insect cells or E. coli that was pre-treated with CaMKK2. […] However, relative to immobilised GST-α2β1γ1 from HEK293T/17 cells, His-tagged and myristoylated α2β1γ1 AMPK (expressed in E. coli, CaMKK2-treated and assayed in solution) was at least 10-fold more sensitive to activation by both MK-8722 and MSG011 (Supplementary Figure S3B), indicating the GST-affinity tag or CaMKK2 treatment may exert some influence on sensitivity to these activators.
(§1) Adherent HEK293T/17 cells at ∼50% confluency were triply transfected with full-length AMPK α1 or α2 (NH2-terminal GST fusion, pDEST27 vector), β1 or β2 (COOH-terminal FLAG fusion, pcDNA3.1 vector), and γ1, γ2 or γ3 (NH2-terminal HA fusion, pMT2 vector) in the presence of FuGENE HD transfection reagent (Promega) as per the manufacturers protocol. Cells were harvested 48 hours post-transfection by first gently washing in ice cold phosphate buffered saline (PBS; Sigma–Aldrich), then scraping in ice cold lysis buffer (50 mM TRIS pH 7.5, 150 mM NaCl, 10% (v/v) glycerol, 50 mM NaF, 5 mM sodium pyrophosphate, 1% (v/v) Triton X-100, cOmplete protease inhibitor cocktail). Lysates were clarified by centrifugation (16 000g, 3 min, 4°C), flash frozen in liquid N2 and stored at −80°C until analysis. For radioactive kinase assays, AMPK was immobilised on glutathione Sepharose 4B resin (GE Healthcare) by incubation with lysates for 1.5 h at 4°C. Following centrifugation (1000g, 3 min, 4°C), the resin was washed twice in purification buffer (50 mM HEPES pH 7.4, 150 mM NaCl, 10% (v/v) glycerol, 0.02% (v/v) Tween-20), once in 50 mM HEPES pH 7.4 with 0.02% (v/v) Tween-20, then resuspended to a 50% slurry with 50 mM HEPES pH 7.4 and 10 µl added to the activity assays. For in solution kinase assays, α1β1γ1 AMPK was eluted from glutathione-Sepharose by incubating with purification buffer supplemented with 40 mM reduced glutathione (Sigma–Aldrich).
AMPK activity was determined by phosphorylation of the SAMS peptide (Purar Chemicals, sequence: NH2-HMRSAMSGLHLVKRR-COOH) in a 25 µl reaction volume containing 100 µM SAMS peptide, 5 mM MgCl2, 200 µM ATP, [γ-^32P]-ATP (PerkinElmer) and assay buffer (50 mM HEPES pH 7.4, 1 mM DTT and 0.02% (v/v) Tween-20) and purified AMPK. […] Ultima Gold liquid scintillation fluid (5 ml; PerkinElmer) was added to vials containing dried phosphocellulose papers, and the level of ^32P-transfer to the SAMS peptide was determined using a Tri-Carb 2900TR liquid scintillation counter (PerkinElmer).

human GST-AMPK α1β1γ2 = molecular target: T1, human GST-AMPK α1β1γ2 (Homo sapiens, UniProt Q13131+Q9Y478); experiment: Radiolabel SAMS kinase assay, immobilised GST-AMPK; assay type: biochemical; conditions: 1 µM compound
T1 construct: triply transfected with full-length AMPK α1 or α2 (NH2-terminal GST fusion, pDEST27 vector); full-length AMPK α1 or α2 (NH2-terminal GST fusion, pDEST27 vector), β1 or β2 (COOH-terminal FLAG fusion, pcDNA3.1 vector); FLAG (C); made in house; host or cells: HEK293T/17 cells, transient triple transfection
T1 sequence (Q13131 whole entry, the tested form may be a part): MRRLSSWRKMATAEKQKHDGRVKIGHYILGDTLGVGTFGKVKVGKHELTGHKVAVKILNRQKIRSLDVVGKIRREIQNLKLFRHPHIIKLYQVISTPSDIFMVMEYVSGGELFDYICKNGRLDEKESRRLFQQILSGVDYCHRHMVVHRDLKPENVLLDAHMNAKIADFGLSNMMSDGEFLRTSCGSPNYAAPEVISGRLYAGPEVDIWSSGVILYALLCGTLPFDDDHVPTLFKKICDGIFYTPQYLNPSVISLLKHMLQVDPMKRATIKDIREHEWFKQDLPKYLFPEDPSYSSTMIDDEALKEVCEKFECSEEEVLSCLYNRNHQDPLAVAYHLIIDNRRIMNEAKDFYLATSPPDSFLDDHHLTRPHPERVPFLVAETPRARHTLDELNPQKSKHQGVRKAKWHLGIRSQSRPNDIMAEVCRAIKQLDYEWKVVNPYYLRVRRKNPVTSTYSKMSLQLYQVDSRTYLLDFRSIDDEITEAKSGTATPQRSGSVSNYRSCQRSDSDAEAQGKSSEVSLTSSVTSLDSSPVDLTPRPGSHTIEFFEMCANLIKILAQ
T1 sequence (Q9Y478 whole entry, the tested form may be a part): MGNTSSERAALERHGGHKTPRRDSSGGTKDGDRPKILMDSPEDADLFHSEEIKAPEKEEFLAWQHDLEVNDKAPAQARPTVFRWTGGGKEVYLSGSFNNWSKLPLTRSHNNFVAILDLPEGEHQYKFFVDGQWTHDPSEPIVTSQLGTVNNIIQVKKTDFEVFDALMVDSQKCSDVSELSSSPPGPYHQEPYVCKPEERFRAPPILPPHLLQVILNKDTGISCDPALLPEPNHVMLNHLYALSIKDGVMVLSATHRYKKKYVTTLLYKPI
T1 sequence (Q9UGJ0 whole entry partner, the tested form may be a part): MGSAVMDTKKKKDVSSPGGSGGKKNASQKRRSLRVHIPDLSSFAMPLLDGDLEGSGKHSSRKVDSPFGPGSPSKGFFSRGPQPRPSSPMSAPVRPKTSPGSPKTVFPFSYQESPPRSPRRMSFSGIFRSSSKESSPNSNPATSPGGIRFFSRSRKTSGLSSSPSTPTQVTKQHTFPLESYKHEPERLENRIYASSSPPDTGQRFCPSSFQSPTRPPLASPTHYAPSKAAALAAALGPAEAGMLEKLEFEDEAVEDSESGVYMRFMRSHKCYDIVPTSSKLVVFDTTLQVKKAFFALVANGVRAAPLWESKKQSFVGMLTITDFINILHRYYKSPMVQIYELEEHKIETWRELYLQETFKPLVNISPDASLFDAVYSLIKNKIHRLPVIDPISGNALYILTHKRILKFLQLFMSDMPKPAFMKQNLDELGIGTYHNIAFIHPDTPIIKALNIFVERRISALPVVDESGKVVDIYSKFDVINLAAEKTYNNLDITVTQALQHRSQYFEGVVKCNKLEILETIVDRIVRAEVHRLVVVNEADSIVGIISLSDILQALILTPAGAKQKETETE
Excerpt: (§2) We generated a series of compounds to investigate whether modification of the SC4 2-hydroxybiphenyl LHS fragment affects isoform selectivity, some of which (MSG008-MSG011) are presented in Table 1. We also synthesised compound MSG012 (example I-3-54 [32]), which was reported to activate α2β2γ1 with ∼100-fold greater potency compared with α1β1γ1. MSG012 differs from SC4 by substitution of the 2-hydroxyphenyl LHS fragment with 3-cyclohexen-4-yl-1-carboxylic acid, and 2-methylbenzoic acid RHS fragment with 1-hydroxy-N,N-dimethylcyclohexan-4-yl-1-carboxamide. Our initial screen involved measuring the activity of recombinant human GST-AMPK complexes expressed in HEK293T/17 cells and immobilised on glutathione-Sepharose (Supplementary Figure S1). Enzyme activity was measured by radiolabelling the synthetic SAMS peptide substrate in the absence or presence of 1 µM compound. Consistent with our previous characterisation, SC4 activated α1β1γ1, α2β1γ1 and α2β2γ1 >2.3-fold, and weakly activated α1β2γ1 1.3-fold (Figure 1A). […] The γ isoform had little influence on AMPK activation by MSG011 as most γ2 and γ3 complexes were activated >2.2-fold at 1 µM, with α1β2γ2 being the only exception (1.6-fold activation). […] Accordingly, MSG010, MSG011 and MSG012 can be classified as pan AMPK activators.
as §1
(§3) AMPK activity was determined by phosphorylation of the SAMS peptide (Purar Chemicals, sequence: NH2-HMRSAMSGLHLVKRR-COOH) in a 25 µl reaction volume containing 100 µM SAMS peptide, 5 mM MgCl2, 200 µM ATP, [γ-^32P]-ATP (PerkinElmer) and assay buffer (50 mM HEPES pH 7.4, 1 mM DTT and 0.02% (v/v) Tween-20) and purified AMPK. Phosphotransferase activity was conducted at 30°C for 10 min and reactions were quenched by spotting 15 µl onto phosphocellulose ion-exchange chromatography paper (made in-house), followed by repeated washes in 1% H3PO4 (Merck Millipore). Ultima Gold liquid scintillation fluid (5 ml; PerkinElmer) was added to vials containing dried phosphocellulose papers, and the level of ^32P-transfer to the SAMS peptide was determined using a Tri-Carb 2900TR liquid scintillation counter (PerkinElmer).

human GST-AMPK α1β1γ3 = molecular target: T2, human GST-AMPK α1β1γ3 (Homo sapiens, UniProt Q13131+Q9Y478); experiment: Radiolabel SAMS kinase assay, immobilised GST-AMPK; assay type: biochemical; conditions: 1 µM compound
T2 construct: triply transfected with full-length AMPK α1 or α2 (NH2-terminal GST fusion, pDEST27 vector); full-length AMPK α1 or α2 (NH2-terminal GST fusion, pDEST27 vector), β1 or β2 (COOH-terminal FLAG fusion, pcDNA3.1 vector); FLAG (C); made in house; host or cells: HEK293T/17 cells, transient triple transfection
T2 sequence (Q13131 whole entry, the tested form may be a part): as the sequence (Q13131 whole entry, the tested form may be a part) above
T2 sequence (Q9Y478 whole entry, the tested form may be a part): as the sequence (Q9Y478 whole entry, the tested form may be a part) above
T2 sequence (Q9UGI9 whole entry partner, the tested form may be a part): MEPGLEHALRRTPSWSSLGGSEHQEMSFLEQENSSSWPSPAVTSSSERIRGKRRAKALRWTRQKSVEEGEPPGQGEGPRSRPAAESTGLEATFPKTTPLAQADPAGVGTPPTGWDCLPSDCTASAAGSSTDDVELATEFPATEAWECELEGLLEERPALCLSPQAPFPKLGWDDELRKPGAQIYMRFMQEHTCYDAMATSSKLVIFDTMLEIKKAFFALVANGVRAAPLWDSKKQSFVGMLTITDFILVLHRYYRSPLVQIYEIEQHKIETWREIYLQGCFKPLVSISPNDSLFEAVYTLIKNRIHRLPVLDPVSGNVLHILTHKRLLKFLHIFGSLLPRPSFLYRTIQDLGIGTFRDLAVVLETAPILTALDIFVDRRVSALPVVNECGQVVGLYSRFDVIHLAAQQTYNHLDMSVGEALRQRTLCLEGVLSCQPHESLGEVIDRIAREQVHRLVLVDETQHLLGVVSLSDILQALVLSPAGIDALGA
Excerpt: as §2, §1, §3

human GST-AMPK α1β2γ2 = molecular target: T3, human GST-AMPK α1β2γ2 (Homo sapiens, UniProt O43741+Q13131); experiment: Radiolabel SAMS kinase assay, immobilised GST-AMPK; assay type: biochemical; conditions: 1 µM compound
T3 construct: triply transfected with full-length AMPK α1 or α2 (NH2-terminal GST fusion, pDEST27 vector); full-length AMPK α1 or α2 (NH2-terminal GST fusion, pDEST27 vector), β1 or β2 (COOH-terminal FLAG fusion, pcDNA3.1 vector); FLAG (C); made in house; host or cells: HEK293T/17 cells, transient triple transfection
T3 sequence (Q13131 whole entry, the tested form may be a part): as the sequence (Q13131 whole entry, the tested form may be a part) above
T3 sequence (O43741 whole entry, the tested form may be a part): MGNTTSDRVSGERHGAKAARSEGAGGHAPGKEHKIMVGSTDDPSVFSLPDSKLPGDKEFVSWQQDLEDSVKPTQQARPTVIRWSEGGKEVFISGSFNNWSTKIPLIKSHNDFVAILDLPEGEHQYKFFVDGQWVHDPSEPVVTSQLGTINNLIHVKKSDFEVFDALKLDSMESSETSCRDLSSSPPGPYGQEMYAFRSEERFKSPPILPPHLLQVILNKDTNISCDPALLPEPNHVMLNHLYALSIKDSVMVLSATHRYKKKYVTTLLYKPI
T3 sequence (Q9UGJ0 whole entry partner, the tested form may be a part): as the sequence (Q9UGJ0 whole entry partner, the tested form may be a part) above
Excerpt: as §2, §1, §3

human GST-AMPK α2β2γ2 = molecular target: T4, human GST-AMPK α2β2γ2 (Homo sapiens, UniProt O43741+P54646); experiment: Radiolabel SAMS kinase assay, immobilised GST-AMPK; assay type: biochemical; conditions: 1 µM compound
T4 construct: triply transfected with full-length AMPK α1 or α2 (NH2-terminal GST fusion, pDEST27 vector); full-length AMPK α1 or α2 (NH2-terminal GST fusion, pDEST27 vector), β1 or β2 (COOH-terminal FLAG fusion, pcDNA3.1 vector); FLAG (C); made in house; host or cells: HEK293T/17 cells, transient triple transfection
T4 sequence (P54646 whole entry, the tested form may be a part): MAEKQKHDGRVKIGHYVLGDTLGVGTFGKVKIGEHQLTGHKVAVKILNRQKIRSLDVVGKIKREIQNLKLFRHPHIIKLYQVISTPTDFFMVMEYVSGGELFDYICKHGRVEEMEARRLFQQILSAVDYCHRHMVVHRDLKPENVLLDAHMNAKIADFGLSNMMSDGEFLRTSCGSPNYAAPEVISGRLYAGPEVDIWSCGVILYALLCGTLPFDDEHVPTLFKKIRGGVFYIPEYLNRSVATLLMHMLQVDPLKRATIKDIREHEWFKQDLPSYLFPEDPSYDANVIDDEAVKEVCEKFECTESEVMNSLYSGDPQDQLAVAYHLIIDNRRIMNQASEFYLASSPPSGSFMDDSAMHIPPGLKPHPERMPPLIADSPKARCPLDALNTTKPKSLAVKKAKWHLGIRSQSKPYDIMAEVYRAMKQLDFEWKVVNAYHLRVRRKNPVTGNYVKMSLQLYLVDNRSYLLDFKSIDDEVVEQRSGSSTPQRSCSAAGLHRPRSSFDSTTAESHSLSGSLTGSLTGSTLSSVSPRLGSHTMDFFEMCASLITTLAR
T4 sequence (O43741 whole entry, the tested form may be a part): as the sequence (O43741 whole entry, the tested form may be a part) above
T4 sequence (Q9UGJ0 whole entry partner, the tested form may be a part): as the sequence (Q9UGJ0 whole entry partner, the tested form may be a part) above
Excerpt: as §2, §1, §3

human GST-AMPK α2β1γ2 = molecular target: T5, human GST-AMPK α2β1γ2 (Homo sapiens, UniProt P54646+Q9Y478); experiment: Radiolabel SAMS kinase assay, immobilised GST-AMPK; assay type: biochemical; conditions: 1 µM compound
T5 construct: triply transfected with full-length AMPK α1 or α2 (NH2-terminal GST fusion, pDEST27 vector); full-length AMPK α1 or α2 (NH2-terminal GST fusion, pDEST27 vector), β1 or β2 (COOH-terminal FLAG fusion, pcDNA3.1 vector); FLAG (C); made in house; host or cells: HEK293T/17 cells, transient triple transfection
T5 sequence (P54646 whole entry, the tested form may be a part): as the sequence (P54646 whole entry, the tested form may be a part) above
T5 sequence (Q9Y478 whole entry, the tested form may be a part): as the sequence (Q9Y478 whole entry, the tested form may be a part) above
T5 sequence (Q9UGJ0 whole entry partner, the tested form may be a part): as the sequence (Q9UGJ0 whole entry partner, the tested form may be a part) above
Excerpt: as §2, §1, §3

human GST-AMPK α2β1γ3 = molecular target: T6, human GST-AMPK α2β1γ3 (Homo sapiens, UniProt P54646+Q9Y478); experiment: Radiolabel SAMS kinase assay, immobilised GST-AMPK; assay type: biochemical; conditions: 1 µM compound
T6 construct: triply transfected with full-length AMPK α1 or α2 (NH2-terminal GST fusion, pDEST27 vector); full-length AMPK α1 or α2 (NH2-terminal GST fusion, pDEST27 vector), β1 or β2 (COOH-terminal FLAG fusion, pcDNA3.1 vector); FLAG (C); made in house; host or cells: HEK293T/17 cells, transient triple transfection
T6 sequence (P54646 whole entry, the tested form may be a part): as the sequence (P54646 whole entry, the tested form may be a part) above
T6 sequence (Q9Y478 whole entry, the tested form may be a part): as the sequence (Q9Y478 whole entry, the tested form may be a part) above
T6 sequence (Q9UGI9 whole entry partner, the tested form may be a part): as the sequence (Q9UGI9 whole entry partner, the tested form may be a part) above
Excerpt: as §2, §1, §3

human GST-AMPK α1β2γ3 = molecular target: T7, human GST-AMPK α1β2γ3 (Homo sapiens, UniProt O43741+Q13131); experiment: Radiolabel SAMS kinase assay, immobilised GST-AMPK; assay type: biochemical; conditions: 1 µM compound
T7 construct: triply transfected with full-length AMPK α1 or α2 (NH2-terminal GST fusion, pDEST27 vector); full-length AMPK α1 or α2 (NH2-terminal GST fusion, pDEST27 vector), β1 or β2 (COOH-terminal FLAG fusion, pcDNA3.1 vector); FLAG (C); made in house; host or cells: HEK293T/17 cells, transient triple transfection
T7 sequence (Q13131 whole entry, the tested form may be a part): as the sequence (Q13131 whole entry, the tested form may be a part) above
T7 sequence (O43741 whole entry, the tested form may be a part): as the sequence (O43741 whole entry, the tested form may be a part) above
T7 sequence (Q9UGI9 whole entry partner, the tested form may be a part): as the sequence (Q9UGI9 whole entry partner, the tested form may be a part) above
Excerpt: as §2, §1, §3

human GST-AMPK α2β2γ3 = molecular target: T8, human GST-AMPK α2β2γ3 (Homo sapiens, UniProt O43741+P54646); experiment: Radiolabel SAMS kinase assay, immobilised GST-AMPK; assay type: biochemical; conditions: 1 µM compound
T8 construct: triply transfected with full-length AMPK α1 or α2 (NH2-terminal GST fusion, pDEST27 vector); full-length AMPK α1 or α2 (NH2-terminal GST fusion, pDEST27 vector), β1 or β2 (COOH-terminal FLAG fusion, pcDNA3.1 vector); FLAG (C); made in house; host or cells: HEK293T/17 cells, transient triple transfection
T8 sequence (P54646 whole entry, the tested form may be a part): as the sequence (P54646 whole entry, the tested form may be a part) above
T8 sequence (O43741 whole entry, the tested form may be a part): as the sequence (O43741 whole entry, the tested form may be a part) above
T8 sequence (Q9UGI9 whole entry partner, the tested form may be a part): as the sequence (Q9UGI9 whole entry partner, the tested form may be a part) above
Excerpt: as §2, §1, §3

SMILES	EC50 fold higher than previously determined by high-throughput fluorescence-based assays in solution (γ1AMPK complexes; compared with refs 17, 18)	EC50 (γ1AMPK complexes; immobilised GST-γ1AMPK, read-out: EC50 values for γ1AMPK activation) [µM]	fold AMPK activation relative to vehicle (human GST-AMPK α1β1γ2) [fold]	fold AMPK activation relative to vehicle (human GST-AMPK α1β1γ3) [fold]	fold AMPK activation relative to vehicle (human GST-AMPK α1β2γ2) [fold]	fold AMPK activation relative to vehicle (human GST-AMPK α2β2γ2) [fold]	fold AMPK activation relative to vehicle (human GST-AMPK α2β1γ2) [fold]	fold AMPK activation relative to vehicle (human GST-AMPK α2β1γ3) [fold]	fold AMPK activation relative to vehicle (human GST-AMPK α1β2γ3) [fold]	fold AMPK activation relative to vehicle (human GST-AMPK α2β2γ3) [fold]
O[C@@H]1CO[C@H]2[C@@H]1OC[C@H]2Oc1nc2nc(-c3ccc(-c4ccccc4)cc3)c(Cl)cc2[nH]1 [MK-8722, reference compound]	100–1000 fold	1.2 to 5.6	–	–	–	–	–	–	–	–
CC(=O)NC1CC=C(c2ccc(-c3nc4nc(Oc5ccc(C)c(C(=O)O)c5)[nH]c4cc3Cl)cc2)CC1 (stereo not shown) [MSG011, 5-((5-(4′-Acetamido-2′,3′,4′,5′-tetrahydro-[1,1′-biphenyl]-4-yl)-6-chloro-1H-imidazo[4,5-b]pyridin-2-yl)oxy)-2-methylbenzoic acid]	–	–	> 2.2	> 2.2	1.6	> 2.2	> 2.2	> 2.2	> 2.2	> 2.2
